Literature values in patent publication EP1136069A1, “Pharmaceutical compositions containing clodronates for high local tolerance intramuscular administration” (SPA SOCIETA' PRODOTTI ANTIBIOTICI S.p.A., priority 2000, dated 2001).

Conditions: oral route

O=P(O)(O)C(Cl)(Cl)P(=O)(O)O [clodronate]
bioavailability: 1-4%
